From patent US7223794B2, “Arylheteroalkylamine derivatives and their use as inhibitors of nitric oxide synthase” (AstraZeneca AB, priority 2001, dated 2007)
Structures can show the parent of a compound that is named as a salt.

Experiments:
[1] = tested on: human form of induced nitric oxide synthase; test: Screen 3: nitrite accumulation (Griess) in cytokine-induced DLD-1 cells; format: cell-based; details: DLD-1 cells induced with gamma-IFN, TNF-alpha, IL-6, IL-1-beta, 5 hours incubation with compound, read-out: IC50 (inhibition of nitrite accumulation)
Method: The human colorectal carcinoma cell line, DLD-1 (obtained from the European Collection of Animal Cell Culture—cell line number 90102540) was routinely grown in RPMI 1640 supplemented with 10%(v/v) foetal bovine serum, and 2 mM L-glutanmine, at 37° C. in 5% CO2.
Nitric oxide synthase was induced in cells by addition of medium containing human recombinant gamma-IFN (1000 units/ml), TNF-alpha (200 U/ml), IL-6 (200 U/ml) and IL-1-beta (250 U/ml). After incubation for 18 hours at 37° C., the medium was removed and the cells washed with warm phosphate buffered saline. Cells were incubated for a further 5 hours at 37° C./5% CO2 in RPMI 1640 containing 100 μM L-arginine and 100 μM verapamil-HCl in the presence and absence of test compounds.
Nitrite accumulation was determined by mixing an equal volume of culture media with Griess reagent (10 mg/ml sulphanilamide, 1 mg N-(1-naphthyl)ethylenediamine in 1 ml 2.5% (v/v) phosphoric acid). Inhibition in the presence of compounds was calculated relative to the nitrite levels produced by untreated cells. IC50 values were estimated from a semi-log plot of % inhibition versus concentration of compound.

Nitric oxide synthase = biological target: T1, Nitric oxide synthase (Mus musculus, UniProt P29477); test: Screen 1: nitric oxide synthase inhibition, 3H-L-arginine to 3H-L-citrulline conversion, lysate of induced J774A-1 cells; format: biochemical, murine; details: enzyme from LPS/IFNg-induced J774A-1 macrophage lysate; 1 hour at room temperature; read-out: IC50 (concentration of drug substance which gives 50% enzyme inhibition in the assay)
T1 construct: endogenous in cells; host or cells: J774A-1 murine macrophage cell line, induced with LPS and IFNg; crude cell lysate
Method: The activity of compounds of formula (I), or a pharmaceutically acceptable salt thereof, may be screened for nitric oxide synthase inhibiting activity by a procedure based on that of Förstermann et al., Eur. J. Pharm., 1992, 225, 161–165. Nitric oxide synthase converts ^3H-L-arginine into ^3H-L-citrulline which can be separated by cation exchange chromatography and quantified by liquid scintillation counting.
Enzyme is prepared, after induction, from the cultured murine macrophage cell line J774A-1 (obtained from the laboratories of the Imperial Cancer Research Fund). J774A-1 cells are cultured in Dulbeccos Modified Eagles Medium (DMEM) supplemented with 10% foetal bovine serum, 4 mM L-glutamine and antibiotics (100 units/nl penicillin G, […] streptomycin & […] ainphotericin B). Cells are routinely grown in […] flasks containing 35 ml medium kept at 37° C. and in a humidified atmosphere containing 5% CO2. […]
Labelled L-citrulline is separated from labelled L-arginine using Dowex AG-50W. […] After allowing the samples to dry the L-citrulline is quantified by scintillation counting.
In a typical experiment basal activity is 300 dpm per 75 μl sample which is increased to 1900 dpm in the reagent controls. […] Compounds are tested at a range of concentrations and from the inhibitions is obtained IC50 values are calculated. […]

| Compound | IC50 [1] | melting point | IC50 (Nitric oxide synthase) |
| --- | --- | --- | --- |
| CNC[C@@H](Sc1cc(Cl)ccc1C#N)c1ccccc1 [Example 9, 4-Chloro-2-[[(1S)-2-(methylamino)-1-phenylethyl]thio]benzonitrile hydrochloride] | < 100 µM |  |  |
| Cc1ccc(C#N)c(S[C@H](CN)c2ccccc2)n1 [Example 2, 2-[[(1S)-2-Amino-1-phenylethyl]thio]-6-methyl-3-pyridinecarbonitrile hydrochloride] | < 100 µM |  |  |
| N#Cc1cc(F)c(Cl)cc1O[C@H](CN)c1ccccc1 [Example 1, 2-[[(1S)-2-Amino-1-phenylethyl]oxy]-4-chloro-5-fluorobenzonitrile (E)-butenedioate] | < 100 µM |  |  |
| N#Cc1ccc(C(F)(F)F)nc1S[C@H](CN)c1ccccc1 [Example 7, 2-[[(1S)-2-Amino-1-phenylethyl]thio]-6-(trifluoromethyl)-3-piridinecarbonitrile] | < 100 µM |  |  |
| N#Cc1ccc(Cl)cc1SC(CN)c1cccnc1 (stereo not drawn) [Example 11, 2-[[2-Amino-1-(3-pyridinyl)ethyl]thio]-4-chlorobenzonitrile] | < 100 µM |  |  |
| N=C(N)NN [ainlinoguanidine] |  |  | 10 µM |
| N#Cc1cc(F)c(Cl)cc1O[C@H](CN)c1ccon1 [Example 10, 2-[[(1R)-2-Amino-1-(3-isoxazolyl)ethyl]oxy]-4-chloro-5-fluorobenzonitrile ethanedioate] | < 100 µM |  |  |

Continued, in another order:

| IC50 [1] | melting point | Compound | IC50 (Nitric oxide synthase) |
| --- | --- | --- | --- |
| < 100 µM | 133 to 135 °C | CC(=N)NCC(Oc1cc(Cl)c(F)cc1C#N)c1ccccc1.Cl (stereo not drawn) [Example 5, N-[2-(5-Chloro-2-cyano-4-fluorophenoxy)-2-phenylethyl]-ethanimidamide hydrochloride] |  |
| < 100 µM |  | COc1ccc(C#N)c(S[C@H](CN)c2ccccc2)c1 [Example 8, 2-[[(1S)-2-Amino-1-phenylethyl]thio]-4-methoxybenzonitrile hydrochloride] |  |
| < 100 µM |  | N#Cc1ccc(Cl)cc1S[C@H](CN)c1ccccc1 [Example 4, 2-[[(1S)-2-Amino-1-phenylethyl]thio]-4-chlorobenzonitrile hydrochloride] |  |
| < 100 µM |  | NCC(Sc1cc(Cl)ccc1Cl)c1ccccc1 (stereo not drawn) [Example 3, 2-[(2,5-Dichlorophenyl)thio]-2-phenylethylamine hydrochloride] |  |
